From article PMC8647151, “PLK1‐dependent phosphorylation restrains EBNA2 activity and lymphomagenesis in EBV‐infected mice” (EMBO Reports, 2021)
Several values for one entry are separate records, joined by “and”; a condition that tells them apart may be missing. Identical values can stand only once. Where a SMILES comes first, the peptide text is derived from it. [ ]: non-standard residue; d: D form. pS = N[C@@H](COP(=O)(O)O)C(=O)O

Tests used:
[1] = target: T1, PLK1 PBD (PLK1 residue 345‐603) (Homo sapiens, UniProt P53350); assay: Isothermal titration calorimetry of EBNA2 heptapeptides with PLK1 PBD; type: binding; conditions: ITC200, 100 µM PBD in the cell titrated with 1 mM peptide, 25°C, triplicates
T1 construct: His6 (N); made in house; host or cells: E. coli Rosetta (DE3)
Protocol: PLK1 frequently binds to phosphorylated substrates that are primed by cellular kinases like Cyclin B/CDK1. These substrates share a consensus motif [Pro/Phe]‐[Φ/Pro]‐[Φ]‐[Thr/Gln/His/Met]‐Ser‐[pThr/pSer]‐[Pro/X] (Φ represents hydrophobic and X represents any residue) specific for binding to the Polo‐box binding domain (PBD) of PLK1 (Elia et al, [2003a]). […] Mutants involving the respective residues were tested for PLK1 binding by transfection and co‐precipitation. […] To specify the contribution of EBNA2 residue S379 phosphorylation, a heptapeptide (PNTSSPS) and phospho‐heptapeptide (PNTSpSPS) were tested for PBD (PLK1 residue 345‐603) binding by isothermal titration calorimetry (ITC). […] GST‐EBNA2 342–422 expressed and purified from bacterial extracts did hardly pulldown any PLK1 from cellular extracts. […] Also, as shown by transfection, EBNA2 S379A binding to PLK1 was severely impaired (Fig 2H). We conclude that EBNA2 residue S379 is a PLK1 docking site primed by Cyclin B/CDK1 phosphorylation.
Experiments were performed on a ITC200 instrument in triplicates and analyzed with the Malvern software. 100 µM PBD was provided in the cell and titrated with 1 mM concentration of wild type (PNTSSPS) or phosphopeptide (PNTSpSPS) with 25 times 1.5 µl injections at 25°C.

PLK1 = assay: Kinase assay on EBNA2/PLK1 co-precipitates with endogenous PLK1; type: biochemical; conditions: Volasertib 40 nM, [γ-32P] ATP
Protocol: Monoclonal antibodies specific for His6 (2F12), EBNA2 (R3), glutathione S transferase (6G9), HA‐tag (3F10), BSA (3C5), and LMP1 (1G6) were provided by the antibody facility of the Helmholtz Center Munich. Commercial providers were as follows: GAPDH (Mab374; Merck Millipore), Flag (M2; Sigma‐Aldrich), PLK1 (ab17056; Abcam), GFP (7.1 and 13.1; Roche), and a p300‐specific serum (C20; Santa Cruz). For immunoprecipitations and Western blotting, the equivalent of 1 × 10^7 cells was lysed in 500 µl of lysis buffer (1% NP‐40, 10 mM Tris–HCl pH 7.4, 3% glycerol, 150 mM NaCl, 1 mM EDTA) supplemented with cOmplete protease inhibitor and PhoStop phosphatase inhibitor (Roche) incubated for 30 min at 4°C with constant rolling and for 30 min on ice. The lysate was cleared by centrifugation (16,000 g, 15 min). 1 µg of purified antibodies or 100 µl of hybridoma supernatants was coupled to Protein A or G beads and added to the cleared lysates, incubated for 2 h at 4°C, and washed with lysis buffer, and the protein was eluted with Laemmeli buffer. For GST‐pulldown, antibody‐coated beads were replaced by GST fusion protein‐coated beads. 20 µg protein of total cell lysates or 5 × 10^6 cell equivalents of one immunoprecipitation were loaded per lane. Signals on Western blots were detected by enhanced chemiluminescence (GE Healthcare) and exposed to films or Fusion FX (Vilber Lourmat). […]

[2] = target: polo-like kinase 1 (PLK1) (UniProt P53350); assay: GST pull-down from cell extract; conditions: reference: wild type, Cyclin B/CDK1 treated; sites S379
[3] = target: PLK1 polo-box domain (PBD), PLK1 residue 345-603 (UniProt P53350); assay: ITC; ITC200; 100 µM PBD in the cell titrated with 1 mM peptide, 25 injections of 1.5 µl, 25°C, triplicates
[4] = target: GST-EBNA2 446-474 double-mutant S457A/T465V (Epstein-Barr virus (B95-8)) (UniProt P12978); assay: pull-down; GST-EBNA2 446-474 (wt or phosphorylation mutants) on beads as bait; cellular proteins from DG75 cells; Western blot with GST- and p300-specific antibodies, signals quantified and normalized to wt

C[C@@H](O)[C@H](NC(=O)[C@H](CC(N)=O)NC(=O)[C@@H]1CCCN1)C(=O)N[C@@H](CO)C(=O)N[C@@H](COP(=O)(O)O)C(=O)N1CCC[C@H]1C(=O)N[C@@H](CO)C(=O)O [PNTSpSPS] (H-PNTS[pS]PS-OH)
Kd ([1]; 25 x 1.5 µl injections, read-out: dissociation constant KD): 8.19 µM

CC[C@@H]1C(=O)N(C)c2cnc(Nc3ccc(C(=O)N[C@H]4CC[C@H](N5CCN(CC6CC6)CC5)CC4)cc3OC)nc2N1C(C)C [Volasertib]
phosphorylation of EBNA2 wt and candidate phosphorylation mutants in immunoprecipitates (PLK1; EBNA2 mutants expressed in DG75 B cells, endogenous PLK1 trapped in precipitates): prevented phosphorylation of all EBNA2 proteins
EBNA2 phosphorylation in co-precipitates of EBNA2 and endogenous PLK1 (PLK1; co-precipitates from DG75 Dox HA-EBNA2 cells, 30 min, 37°C): prevented

EBNA2 (EBV nuclear antigen 2) 342-422 (from UniProt P12978) S379A, Cyclin B/CDK1 treated
binding against the reference [2]: lost

EBNA2 phospho-heptapeptide PNTSpSPS
stoichiometry N [3]: 1

PNTSSPS [unmodified heptapeptide of EBNA2 covering residue S379]
PBD binding by ITC [1]: no interaction was detected

histone acetylase and co-activator p300, endogenous, Q09472 1-2414
fold p300 binding relative to wt [4]: 8 fold and 9 fold
